# Assay results from ChEMBL document CHEMBL1139654, “Antiangiogenic activity of deoxoartemisinin derivatives on chorioallantoic membrane” (Bioorg Med Chem Lett, 2006).
# Organism: Gallus gallus
# Test: Antiangiogenic activity at chorioallantoic membrane of chick embryo at 5 nmol per egg
# Format: functional, organism-based
Compound,inhibition [%],Activity
C[C@H]1[C@@H](CCCOC(=O)CC(=O)OCCC[C@H]2O[C@@H]3O[C@]4(C)CC[C@H]5[C@H](C)CC[C@@H]([C@H]2C)[C@@]35OO4)O[C@@H]2O[C@]3(C)CC[C@H]4[C@H](C)CC[C@@H]1[C@@]24OO3,14,–
C[C@H]1[C@@H](CCBr)O[C@@H]2O[C@]3(C)CC[C@H]4[C@H](C)CC[C@@H]1[C@@]24OO3,29,–
C[C@H]1[C@@H](CCNC(=O)CC[C@H]2O[C@@H]3O[C@]4(C)CC[C@H]5[C@H](C)CC[C@@H]([C@H]2C)[C@@]35OO4)O[C@@H]2O[C@]3(C)CC[C@H]4[C@H](C)CC[C@@H]1[C@@]24OO3,43,–
CO[C@@H]1[C@H](OC(=O)/C=C/C=C/C=C/C=C/C(=O)O)CC[C@]2(CO2)[C@H]1[C@@]1(C)O[C@@H]1CC=C(C)C,57,–
O=C1CC[C@H](N2C(=O)c3ccccc3C2=O)C(=O)N1,50,–
"C[C@@H]1CC[C@H]2[C@@H](COC[C@H]3CO[C@@H]4O[C@]5(C)CC[C@H]6[C@H](C)CC[C@@H]3[C@@]46OO5)CO[C@@H]3OC4(C)CC[C@@H]1[C@]32OO4 (single isomer, unassigned)",71,–
CCS[C@H]1O[C@@H]2O[C@]3(C)CC[C@H]4[C@H](C)CC[C@@H]([C@H]1C)[C@@]24OO3,17,–
CCO[C@H]1O[C@@H]2O[C@@]3(C)CC[C@H]4[C@H](C)CC[C@@H]([C@H]1C)[C@@]24OO3,29,–
C[C@H]1[C@@H](CC[S+]([O-])CC[C@H]2O[C@@H]3O[C@]4(C)CC[C@H]5[C@H](C)CC[C@@H]([C@H]2C)[C@@]35OO4)O[C@@H]2O[C@@]3(C)CC[C@H]4[C@H](C)CC[C@@H]1[C@@]24OO3,–,Toxic
C[C@H]1[C@@H](CCCC(=O)O)O[C@@H]2O[C@]3(C)CC[C@H]4[C@H](C)CC[C@@H]1[C@@]24OO3,50,–
C[C@H]1[C@@H](CCN)O[C@@H]2O[C@]3(C)CC[C@H]4[C@H](C)CC[C@@H]1[C@@]24OO3,29,–
C[C@H]1[C@@H](CCc2ccc(C(=O)O)cc2)O[C@@H]2O[C@]3(C)CC[C@H]4[C@H](C)CC[C@@H]1[C@@]24OO3,29,–
C[C@@H]1CC[C@H]2[C@@H](C(=O)O)CO[C@@H]3O[C@]4(C)CC[C@@H]1[C@]32OO4,20,–
C[C@H]1[C@@H](CCO)O[C@@H]2O[C@]3(C)CC[C@H]4[C@H](C)CC[C@@H]1[C@@]24OO3,63,–
CCCC[C@H]1O[C@@H]2O[C@]3(C)CC[C@H]4[C@H](C)CC[C@@H]([C@H]1C)[C@@]24OO3,63,–
C=C1CO[C@@H]2O[C@]3(C)CC[C@H]4[C@H](C)CC[C@@H]1[C@@]24OO3,29,–
C[C@@H]1CC[C@H]2[C@@H](C)CO[C@@H]3O[C@]4(C)CC[C@@H]1[C@]32OO4,29,–
C[C@@H]1CC[C@H]2[C@@H](C)C(=O)O[C@@H]3O[C@@]4(C)CC[C@@H]1[C@]32OO4,25,–
C[C@@H]1CC[C@H]2[C@@H](CO)CO[C@@H]3O[C@]4(C)CC[C@@H]1[C@]32OO4,29,–
C[C@@H]1CC[C@H]2[C@H](CBr)CO[C@@H]3O[C@]4(C)CC[C@@H]1[C@]32OO4,75,–
C[C@H]1[C@@H](CCS(=O)(=O)CC[C@H]2O[C@@H]3O[C@]4(C)CC[C@H]5[C@H](C)CC[C@@H]([C@H]2C)[C@@]35OO4)O[C@@H]2O[C@@]3(C)CC[C@H]4[C@H](C)CC[C@@H]1[C@@]24OO3,–,Toxic
C[C@H]1[C@@H](O)O[C@@H]2O[C@@]3(C)CC[C@H]4[C@H](C)CC[C@@H]1[C@@]24OO3,25,–
